What was measured:
Test in all cases: Test C preemergence
Format in all cases: in vivo
[1] = system: Galium (catchweed bedstraw, Galium aparine); details: for Plant response rating, Galium: scale 0 to 100, 0 no effect, 100 complete control
Procedure, shortened: (§1)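 Seeds in loam-sand soil treated preemergence, or plants in peat-based medium sprayed postemergence at 2–18 cm (1- to 4-leaf stage), with compound in a non-phytotoxic solvent mixture containing surfactant. Greenhouse-held 13–15 d, then visually rated against controls on a 0–100 scale (0 = no effect, 100 = complete control); dash = not tested.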

[2] = system: barnyardgrass (Echinochloa crus-galli); details: for Plant response rating, Barnyardgrass: scale 0 to 100, 0 no effect, 100 complete control
Procedure, shortened: as §1

[3] = system: blackgrass (Alopecurus myosuroides); details: for Plant response rating, Blackgrass: scale 0 to 100, 0 no effect, 100 complete control
Procedure, shortened: as §1

corn (Zea mays) = details: for Plant response rating, Corn: scale 0 to 100, 0 no effect, 100 complete control
Procedure, shortened: as §1

[4] = system: crabgrass, large (large crabgrass, Digitaria sanguinalis); details: for Plant response rating, Crabgrass, Large: scale 0 to 100, 0 no effect, 100 complete control
Procedure, shortened: as §1

[5] = system: foxtail, giant (giant foxtail, Setaria faberii); details: for Plant response rating, Foxtail, Giant: scale 0 to 100, 0 no effect, 100 complete control
Procedure, shortened: as §1

[6] = system: johnsongrass (Sorghum halepense); details: for Plant response rating, Johnsongrass: scale 0 to 100, 0 no effect, 100 complete control
Procedure, shortened: as §1

[7] = system: lambsquarters (Chenopodium album); details: for Plant response rating, Lambsquarters: scale 0 to 100, 0 no effect, 100 complete control
Procedure, shortened: as §1

[8] = system: morningglory (Ipomoea coccinea); details: for Plant response rating, Morningglory: scale 0 to 100, 0 no effect, 100 complete control
Procedure, shortened: as §1

[9] = system: nutsedge, yellow (yellow nutsedge, Cyperus esculentus); details: for Plant response rating, Nutsedge, Yellow: scale 0 to 100, 0 no effect, 100 complete control
Procedure, shortened: as §1

[10] = system: oilseed rape (Brassica napus); details: for Plant response rating, Oilseed Rape: scale 0 to 100, 0 no effect, 100 complete control
Procedure, shortened: as §1

[11] = system: pigweed (Amaranthus retroflexus); details: for Plant response rating, Pigweed: scale 0 to 100, 0 no effect, 100 complete control
Procedure, shortened: as §1

[12] = system: ryegrass, Italian (Italian ryegrass, Lolium multiflorum); details: for Plant response rating, Ryegrass, Italian: scale 0 to 100, 0 no effect, 100 complete control
Procedure, shortened: as §1

soybean (Glycine max) = details: for Plant response rating, Soybean: scale 0 to 100, 0 no effect, 100 complete control
Procedure, shortened: as §1

[13] = system: velvetleaf (Abutilon theophrasti); details: for Plant response rating, Velvetleaf: scale 0 to 100, 0 no effect, 100 complete control
Procedure, shortened: as §1

[14] = system: waterhemp (common waterhemp, Amaranthus rudis); details: for Plant response rating, Waterhemp: scale 0 to 100, 0 no effect, 100 complete control
Procedure, shortened: as §1

[15] = system: wheat (winter wheat, Triticum aestivum); details: for Plant response rating, Wheat: scale 0 to 100, 0 no effect, 100 complete control
Procedure, shortened: as §1

[16] = 31 g ai/ha, 0 is no effect, 100 is complete control

For `CN1CC(c2ccc(F)c(F)c2)C(C(=O)Nc2ccccc2C(F)(F)F)C1=O` (centres unmarked) [Compound 641], the “Plant response rating (scale of 0 to 100), Galium” value [1, 16] was 0, the “Plant response rating, Galium” value ([1]; 62 g ai/ha) was 30 and the “Plant response rating, Galium” value ([1]; 125 g ai/ha) was 90. For the same compound, the “Plant response rating, Galium” value ([1]; 250 g ai/ha) was 85, the “Plant response rating (scale of 0 to 100), Barnyardgrass” value [2, 16] was 85 and the “Plant response rating, Barnyardgrass” value ([2]; 62 g ai/ha) was 90. The “Plant response rating, Barnyardgrass” value ([2]; 125 g ai/ha) was 90, the “Plant response rating, Barnyardgrass” value ([2]; 250 g ai/ha) was 95 and the “Plant response rating (scale of 0 to 100), Blackgrass” value [3, 16] was 0. For the same compound, the “Plant response rating, Blackgrass” value ([3]; 62 g ai/ha) was 45, the “Plant response rating, Blackgrass” value ([3]; 125 g ai/ha) was 30 and the “Plant response rating, Blackgrass” value ([3]; 250 g ai/ha) was 70. For the same compound, the “Plant response rating (scale of 0 to 100), Corn” value (corn (Zea mays); [16]) was 0, the “Plant response rating, Corn” value (corn (Zea mays); 62 g ai/ha) was 0 and the “Plant response rating, Corn” value (corn (Zea mays); 125 g ai/ha) was 0. For the same compound, the “Plant response rating, Corn” value (corn (Zea mays); 250 g ai/ha) was 10, the “Plant response rating (scale of 0 to 100), Crabgrass, Large” value [4, 16] was 98 and the “Plant response rating, Crabgrass, Large” value ([4]; 62 g ai/ha) was 100. The “Plant response rating, Crabgrass, Large” value ([4]; 125 g ai/ha) was 100, the “Plant response rating, Crabgrass, Large” value ([4]; 250 g ai/ha) was 100 and the “Plant response rating (scale of 0 to 100), Foxtail, Giant” value [5, 16] was 90. The “Plant response rating, Foxtail, Giant” value ([5]; 62 g ai/ha) was 90, the “Plant response rating, Foxtail, Giant” value ([5]; 125 g ai/ha) was 90 and the “Plant response rating, Foxtail, Giant” value ([5]; 250 g ai/ha) was 95. The “Plant response rating (scale of 0 to 100), Johnsongrass” value [6, 16] was 0, the “Plant response rating, Johnsongrass” value ([6]; 62 g ai/ha) was 0 and the “Plant response rating, Johnsongrass” value ([6]; 125 g ai/ha) was 10. For the same compound, the “Plant response rating, Johnsongrass” value ([6]; 250 g ai/ha) was 60, the “Plant response rating (scale of 0 to 100), Lambsquarters” value [7, 16] was 0 and the “Plant response rating, Lambsquarters” value ([7]; 62 g ai/ha) was 40. The “Plant response rating, Lambsquarters” value ([7]; 125 g ai/ha) was 40, the “Plant response rating, Lambsquarters” value ([7]; 250 g ai/ha) was 65 and the “Plant response rating (scale of 0 to 100), Morningglory” value [8, 16] was 0. For the same compound, the “Plant response rating, Morningglory” value ([8]; 62 g ai/ha) was 0, the “Plant response rating, Morningglory” value ([8]; 125 g ai/ha) was 0 and the “Plant response rating, Morningglory” value ([8]; 250 g ai/ha) was 0. The “Plant response rating (scale of 0 to 100), Nutsedge, Yellow” value [9, 16] was 0, the “Plant response rating, Nutsedge, Yellow” value ([9]; 62 g ai/ha) was 0 and the “Plant response rating, Nutsedge, Yellow” value ([9]; 125 g ai/ha) was 0. For the same compound, the “Plant response rating, Nutsedge, Yellow” value ([9]; 250 g ai/ha) was 0, the “Plant response rating (scale of 0 to 100), Oilseed Rape” value [10, 16] was 80 and the “Plant response rating, Oilseed Rape” value ([10]; 62 g ai/ha) was 85. The “Plant response rating, Oilseed Rape” value ([10]; 125 g ai/ha) was 85, the “Plant response rating, Oilseed Rape” value ([10]; 250 g ai/ha) was 90 and the “Plant response rating (scale of 0 to 100), Pigweed” value [11, 16] was 0. The “Plant response rating, Pigweed” value ([11]; 62 g ai/ha) was 25, the “Plant response rating, Pigweed” value ([11]; 125 g ai/ha) was 60 and the “Plant response rating, Pigweed” value ([11]; 250 g ai/ha) was 70. The “Plant response rating (scale of 0 to 100), Ryegrass, Italian” value [12, 16] was 0, the “Plant response rating, Ryegrass, Italian” value ([12]; 62 g ai/ha) was 10 and the “Plant response rating, Ryegrass, Italian” value ([12]; 125 g ai/ha) was 35. The “Plant response rating, Ryegrass, Italian” value ([12]; 250 g ai/ha) was 70, the “Plant response rating (scale of 0 to 100), Soybean” value (soybean (Glycine max); [16]) was 0 and the “Plant response rating, Soybean” value (soybean (Glycine max); 62 g ai/ha) was 0. For the same compound, the “Plant response rating, Soybean” value (soybean (Glycine max); 125 g ai/ha) was 10, the “Plant response rating, Soybean” value (soybean (Glycine max); 250 g ai/ha) was 100 and the “Plant response rating (scale of 0 to 100), Velvetleaf” value [13, 16] was 0. The “Plant response rating, Velvetleaf” value ([13]; 62 g ai/ha) was 35, the “Plant response rating, Velvetleaf” value ([13]; 125 g ai/ha) was 25 and the “Plant response rating, Velvetleaf” value ([13]; 250 g ai/ha) was 45. The “Plant response rating (scale of 0 to 100), Waterhemp” value [14, 16] was 0, the “Plant response rating, Waterhemp” value ([14]; 62 g ai/ha) was 0 and the “Plant response rating, Waterhemp” value ([14]; 125 g ai/ha) was 45. For the same compound, the “Plant response rating, Waterhemp” value ([14]; 250 g ai/ha) was 70, the “Plant response rating (scale of 0 to 100), Wheat” value [15, 16] was 5 and the “Plant response rating, Wheat” value ([15]; 62 g ai/ha) was 0. The “Plant response rating, Wheat” value ([15]; 125 g ai/ha) was 35 and the “Plant response rating, Wheat” value ([15]; 250 g ai/ha) was 70.
